Results as given in patent EP3354264A1, “PROPHYLAXIS AND TREATMENT OF NEISSERIA GONORRHOEAE EYE INFECTION” (Kingston University Higher Education Corporation, priority 2017, dated 2018).
In brackets after ≈: the same amount, converted by molar mass. Where two headings read alike, the source gives them in different places.

How the values were obtained:
[1] = system: Neisseria gonorrhoeae strain NCCP11945; test: Growth inhibition screen of organic acids; assay type: cell-based; conditions: strain NCCP11945, in vitro, 1 mM
Method: (§1) The well characterised N. gonorrhoeae strain NCCP11945 (Chung GT et al. (2008) Complete genome sequence of Neisseria gonorrhoeae NCCP11945. Journal of Bacteriology 190: 6035-6036) was used in the screening stage of this experiment. Eight isolates that were obtained from Public Health England from various European locations were used in the log reduction assays. All isolates were first cultured for 24 hours prior to testing by plating on GC solid medium (Oxoid Limited, Hampshire, UK) with Kellogg supplements and incubating at 37 °C, 5% CO2 (Kellogg DS, Jr., et al., (1963), J Bacteriol 85: 1274-1279).
(§2) A full list of all the organic acids tested in this study is in Table 1. The tested compounds include saturated and unsaturated fatty acids, monoglycerides, dicarboxylic acids, and fatty acid sodium salts. All compounds investigated were resuspended at a concentration of 100 mM in ethanol unless stated. All chemicals were obtained from Sigma-Aldrich (Poole, Dorset, UK).
Other organic acids were also active at this concentration, as noted in Table 1.

[2] = system: Neisseria gonorrhoeae strain NCCP11945; test: Measurement of bactericidal action (log reduction); assay type: cell-based; conditions: for log reduction at 1000 µM: Neisseria gonorrhoeae
Method: as §1, §2
(§3) Log reductions were done using the same method as in Bergsson et al., (1999), Antimicrob Agents Chemother 43: 2790-2792. Briefly, cells were suspended in GC broth (18 g/L GC Base (Oxiod, Limited) with added defined supplements) to an optical density of 0.3 at 520 nm which is approximately equivalent to 107 - 108 cells per millilitre (Macfarlane DE et al. (1980) Improved media for the culture of Neisseria gonorrhoeae. J Med Microbiol 13: 597-607). Five hundred microliters of the suspension was then added to 5 µl of the 100 mM stocks to give a final concentration of 1 mM. A negative control was also done to calculate the reduction in bacterial titre by adding 500 µl to 5 µl ethanol. The tubes were then mixed at room temperature for two minutes and immediately diluted in a 10 fold dilution series down to 10-4. The dilutions were plated by spreading 10 µl on a quarter of a plate and 100 µl of the neat solution was also plated. Plates were incubated at 37 °C for 48 hours. All samples were plated in duplicate. A reduction in viable cell count by more than 4 log10 was deemed to be bactericidal and was selected for further investigation. Bactericidal compounds were then tested at concentrations of 0.75, 0.5, and 0.25 mM (0.125 mM was also used in some potent compounds) to find the minimum bactericidal concentration. Additional testing at lower concentrations was also done on the eight clinical isolates of European origin.

[3] = system: Neisseria gonorrhoeae strain NCCP11945; test: Log reduction in artificial tear fluid; assay type: cell-based; conditions: artificial tear fluid containing calcium chloride; two minute exposure; Figure 8
Method: Artificial tear fluid was made as in Mirejovsky et al., Optometry and Vision Science, (1991), 68: 858-864. […] Neisseria gonorrhoeae strain NCCP11945 was used in these experiments. As the previous log reductions, […] were suspended in GC broth. The cell suspension was centrifuged to remove the culture medium and the bacteria resuspended in the tear fluid. This was then added to the concentrated organic acid candidates. The cells were then counted again after two minute exposure to estimate any reduction due to the exposure to the fatty acid.
In a first experiment, the artificial tear fluid formulation includes calcium chloride to mimic the calcium in natural tears. As shown by the results in Figure 8, the anti-gonococcal properties of myristoleic acid (C14:1cΔ9), palmitoleic acid (C16:1cΔ9), linolenic acid (C18:3cΔ9,12,15), and monocaprin(C10) are retained in the artificial tear fluid formulation containing calcium chloride.
In a second experiment, calcium chloride was omitted from the artificial tear fluid formulation. The results in Figure 9 indicate that the anti-gonococcal properties of lauric acid (C12:0), tridecanoic acid (C13:0), and sodium dodecanoate were retained in the artificial tear fluid formulation without.

[4] = system: panel of nine N. gonorrhoeae isolates (strain NCCP11945 and eight isolates from Public Health England); test: Minimum bactericidal concentration by log reduction, panel of isolates; assay type: cell-based; conditions: Neisseria gonorrhoeae, 2 min; lowest concentration tested giving an average 4 log10 reduction after two minute exposure; nine isolates; read-out: Minimum bactericidal concentration
Method: as §1, §3
As shown by the results in Table 3 which presents data on the log reductions of bacterial cell counts, against a panel of nine N. gonorrhoeae isolates (strain NCCP11945 and eight isolates from Public Health England), myristoleic acid (C14:1cΔ9), palmitoleic acid (C16:1cΔ9), linolenic acid (C18:3cΔ9,12,15), and monocaprin (C10) have a minimal bactericidal concentration, defined as the lowest concentration tested to give an average 4 log10 reduction in bacterial count after a two minute exposure, of 0.5 mM. Against a panel of nine N. gonorrhoeae isolates, lauric acid (C12:0), tridecanoic acid (C13:0), and sodium dodecanoate have a minimal bactericidal concentration of 0.75 mM.

[5] = in vitro; assay type: cell-based, bovine; conditions: red blood cells, bovine RBCs, shaken 1 hour at room temperature
Method: Whole bovine blood was obtained from a local slaughter house (ABP, Guildford, Surrey, UK), adding 90 ml blood to 10 ml of 110 mM tri-sodium citrate anticoagulant. RBCs were isolated the same day. The RBCs were washed by three repeats of centrifugation (1,500 x g for 10 minutes) and resuspension in PBSG. Testing was done following European Union Reference Laboratory for alternatives to animal testing (EURL-ECVAM) guidelines (Lewis RW (2010) DB-ALM Protocol No. 99: Red blood cell (RBC) Test System. EURL ECVAM). The organic acids were made up in DMSO and diluted to a DMSO concentration maximum of 10 % (v/v). Samples were shaken at room temperature for 1 hour and then centrifuged at 10,000 rpm for 2 minutes. An aliquot of 750 µl of the supernatant was taken and absorbance at […] tested.

[6] = 2 min, strain NCCP11945, 1 mM, 2 minutes, read-out: Log reduction of Neisseria gonorrhoeae
[7] = NCCP11945, 2 min, read-out: Log reduction of Neisseria gonorrhoeae, strain NCCP11945, 1 mM, 2 minutes

Row | Compound | Inhibits growth of Neisseria gonorrhoeae [1] | further results
1 | CCCCCCCC(=O)OCC(O)CO (racemic) [1-Octanoyl-rac-Glycerol C8, 1-Octanoyl-rac-Glycerol] | Yes | 
2 | O=C(O)CCCCC(=O)O [Adipic acid] | No | 
3 | CCCCC/C=C\C/C=C\C/C=C\C/C=C\CCCC(=O)O [Arachidonic acid 20:4 cΔ5,8,11,14, Arachidonic acid] | Yes | 
4 | O=C(O)CCCCCCCC(=O)O [Azelaic acid] | No | 
5 | CCCCCCCCCC(=O)O [Capric acid/Decanoic acid 10:0, Decanoic acid] | No | 
6 | CCCCCCCC(=O)O [Caprylic/Octanoic acid 8:0, Octanoic acid] | No | 
7 | CCCCCC/C=C\CCCCCCCCCC(=O)O [Cis-Vaccenic acid 18:1 cAll, Cis-Vaccenic acid] | No | 
8 | CCCCCCCC/C=C/CCCCCCCC(=O)O [Elaidic acid 18:1 tΔ9, Elaidic acid] | Yes | log reduction at 1000 µM [2, 6]: 0.5
9 | CCCCCCCC/C=C\CCCCCCCCCCCC(=O)O [Erucic acid 22:1 cΔ13, Erucic acid] | Yes | log reduction at 1000 µM [2, 7]: 0
10 | CCCCCCCCCCCCCCCCC(=O)O [Heptadecylic acid 17:0, Heptadecylic acid] | No | 
11 | CCCCCCCCCCCCCC(=O)OC(C)C [Isopropyl myristate] | No | 
12 | CCCCCCCCCCCCCCCC(=O)OC(C)C [Isopropyl palmitate] | No | 
13 | CCCCC/C=C\C/C=C\CCCCCCCC(=O)O [Linoleic acid 18:2 cΔ9,12, Linoleic acid] | Yes | log reduction at 1000 µM [2, 6]: 1.6
14 | CC/C=C\C/C=C\C/C=C\CCCCCCCC(=O)O [Linolenic acid 18:3 cΔ9,12,15, α-linolenic acid] | Yes | anti-gonococcal properties in artificial tear fluid [3]: retained; log reduction at 1000 µM [2, 6]: > 6; Log reduction of Neisseria gonorrhoeae ([2]; strain NCCP11945, 1 mM, 2 minutes): able to cause a log reduction; MBC [4]: 500 µM (≈ 139 µg/mL); HC50 at 1 h ([5]; read-out: H50): 70 to 140 µM; HC50 at 1 h ([5]; read-out: H50 (mg/L)): 20 to 40 mg/L; Inhibits growth of Neisseria gonorrhoeae ([1]; listed as linolenic acid): able to inhibit growth
15 | CCCCCCCCCCCC(=O)OCC(O)CO (stereo not shown) [Monolaurin C12, Monolaurin] | Yes | log reduction at 1000 µM [2, 7]: 3.4
16 | CCCCCCCCCCCCCC(=O)OCC(O)CO (stereo not shown) [Monomyristin C14, Monomyristin] | Yes | log reduction at 1000 µM [2, 7]: 0.6
